Results on three molecules are retold here after article PMC4215638, “J-147 a Novel Hydrazide Lead Compound to Treat Neurodegeneration: CeeTox™ Safety and Genotoxicity Analysis” (Journal of neurology & neurophysiology, 2013).

The subject of data set [1] is rat hepatoma (H4IIE) cell line. Nature of the data set: Intracellular glutathione (GSH) levels. The class given is cell-based. Conditions: H4IIE cells; for Percent Change in Total GSH: decrease indicated by (−), increase by (+). The method, then:
(§1) Rat hepatoma derived H4IIE cells were used as the test system because the cell have a rapid doubling time in culture (i.e. 22 hours). The culture medium used for these cells was Eagles Minimum Essential Medium (MEM) with 10% bovine serum and 10% calf serum (Invitrogen). H4IIE cells were seeded into 96-well plates and allowed to equilibrate for approximately 48 hr before drug assay to allow cells to move into a stable growth phase prior to treatment. Following the equilibration period the cells were exposed to J-147 at concentrations of 1–300 μM. Three to 7 replicates were done for each assay to construct concentration-response curves. Solubility was determined by Nephalometry techniques immediately after dosing and prior to harvesting the cells at 6 or 24 hr. Following the incubation period, cells or their supernatant (culture medium) were analyzed for changes in cell proliferation (cell mass), membrane leakage, mitochondrial function, oxidative stress, and apoptosis. The resultant exposure concentration response curves were graphed and analyzed for determining the concentration that produced a half maximal response or TC50 [28, 30].
Intracellular glutathione levels were determined as described previously. Briefly, the sulfhydryl group of GSH reacts with DTNB (5,5′-dithio-bis-2-nitrobenzoic acid, Ellman’s reagent) and produces a yellow colored 5-thio-2-nitrobenzoic acid (TNB). The mixed disulfide, GSTNB (between GSH and TNB) that is concomitantly produced, is reduced by glutathione reductase to recycle the GSH and produce more TNB. The rate of TNB production is directly proportional to the concentration of GSH in the sample. Measurement of the absorbance of TNB at 405 or 412 nm provides an accurate estimation of GSH in the sample. At the end of the exposure period, the medium was removed from the cells and metaphosphoric acid (MPA) was added to each well. Plates were then shaken for 5 min at room temperature and stored at −20°C until needed. The sample plates were thawed just prior to analysis and centrifuged at > 2000 × g for 2 min. Sample aliquots were removed and transferred to a clean 96-well plate along with appropriate standard curve controls. Sample pH was neutralized just prior to analysis and each well received an aliquot of PBS reaction buffer containing Ellman’s reagent, NADPH, and glutathione reductase. The plates were shaken for 15–30 min at room temperature and glutathione content was determined colorimetrically with a Packard Fusion reader at 415 nm. The assay is based on the concept that all GSH is oxidized to GSSG by DTNB reagent. Two molecules of GSH are required to make one molecule of GSSG (oxidized glutathione). Total GSH was determined by reducing GSSG to 2GSH with glutathione reductase. A standard curve was prepared with oxidized glutathione (GSSG) over a range of concentrations. These concentrations are then converted to glutathione equivalents (GSX) essentially by multiplying the GSSG standard concentrations by 2. The amount of GSX expressed as pmoles/well was determined using the standard curve and regression analysis and are expressed as percent of control;

Data set [2] deals with rat hepatoma (H4IIE) cell line. Nature of the data set: CeeTox cellular ATP content, luciferin/luciferase. The settings on record: H4IIE cells, 24-hr exposure. The class given is cell-based. As to the method: All Ceetox assays utilizing the rat hepatoma (H4IIE) cell line as the test system were conducted by CeeTox Inc Kalamazoo, MI. Ceetox assays are described in detail by McKim and Lapchak and according to a Standard Operating Procedure (SOP).
as §1
Adenosine triphosphate (ATP) content was determined using a modification of a standard luciferin/luciferase luminescence assay based on a reaction between ATP + D-luciferin + oxygen catalyzed by luciferase to yield Oxyluciferin + AMP + PPi + CO2 + light. The emitted light is proportional to the amount of ATP present. […] Plates were analyzed immediately or stored at −20°C until needed. […] ATP was quantified by adding ATP substrate solution and then reading luminescence on a Packard Fusion Luminescence reader. […] Background corrected luminescence was used to determine percent change relative to controls by dividing treated values by control values and multiplying by 100.

The test system of data set [3] is P-glycoprotein (PgP). The data set can be described thus: P-glycoprotein (PgP) binding using the MTT assay with and without cyclosporin A. The class given is cell-based, rat. Details: key to % Difference (PgP interaction ranking): NC=No change. The settings on record: for % Control (Compound + CSA) / % Control (Compound): MTT, H4IIE cells, single exposure concentration (50 μM), 24-hr; for % Control (Compound + CSA): with cyclosporin A; for % Control (Compound): without CSA; for % Difference (PgP interaction ranking): difference in the absence and presence of CSA. As to the method: For this assay, cells are incubated with and without cyclosporin A (CSA) (a PgP inhibitor) at a single exposure concentration (50 μM) and the difference in toxicity determined with the MTT assay. Compounds with increased toxicity in the presence of CSA have a high probability of binding to PgP proteins. However, compounds of low toxicity will typically not show a difference relative to the addition of CSA, regardless of whether they bind to PgP. At the end of the 24-hr exposure period the culture medium was removed and the remaining attached cells were assayed for their ability to reduce MTT. Viable cells will have the greatest amount of MTT reduction and highest absorbance values. Percent control values were determined by dividing the mean absorbance/fluorescence of the treatment group by the mean absorbance of the control group and multiplying by 100.
In general terms: Formazan colour is commonly taken as a measure of viable cells.

For data set [4], the system named is rat hepatoma (H4IIE) cell line. The data set can be described thus: Lipid peroxidation measured as 8-isoprostane ELISA. It is filed as cell-based. Details: key to Membrane Lipid Peroxidation: 0=No Change; 1=Modest increase with maximum values<15 pg/mL; 2=Concentration related increase with maximum values>15 pg/mL; 3=Concentration related increase with a maximum value>30 pg/mL. Conditions: H4IIE cells; for Membrane Lipid Peroxidation: 8-isoprostane score. As to the method: as §1
8-ISO levels were determined using an ELISA (Cayman Chemical Inc). 8-ISO is a member of a family of eicosanoids produced nonenzymatically by random oxidation of tissue phospholipids by oxygen radicals. Therefore, an increase in 8-ISO is an indirect measure of increased lipid peroxidation. At the end of the exposure period, plates were either analyzed immediately or stored at −80°C until needed for analysis. Color development, which is […] proportional to the amount of 8-ISO present in the sample, was read on a Packard Fusion or equivalent plate reader at 415 nm. Background absorbance produced from Ellman’s reagent is subtracted from all wells. Non-specific binding is subtracted from the maximum binding wells to give a corrected maximum binding expressed as Bo. The percent of bound (B) relative to maximum binding capacity (Bo) for all unknown samples and for standards was determined an expressed as (%B/Bo). The %B/Bo for standards was plotted against the log of 8-ISO added to yield the final standard curve. This curve was used to convert %B/Bo to pg 8-ISO/mL of sample.
For orientation: In an ELISA, binding on a coated surface is turned into a signal by an enzyme label.

On to `CC[C@@]1(O)C(=O)OCc2c1cc1n(c2=O)Cc2cc3ccccc3nc2-1` [Camptothecin, camptothecin], for which, in data set [1], the “Total GSH TC50” value turned out to be 3900 nM and the “Percent Change in Total GSH” value was −64.5%. Further, the “ATP TC50” value in data set [2] turned out to be 300 nM. Also, in data set [3], the “% Control (Compound + CSA)” value is given as 85.3%, the “% Control (Compound)” value stood at 76.6% and the “% Difference (PgP interaction ranking)” value is given as “NC”. Moreover, in data set [4], the “Membrane Lipid Peroxidation” value is on record as 1 (1=Modest increase with maximum values<15 pg/mL).
Turning to `COc1cccc(/C=N/N(C(=O)C(F)(F)F)c2ccc(C)cc2C)c1` [J-147, (E)-N-(2,4-Dimethylphenyl)-2,2,2-trifluoro-N′-(3-methoxybenzylidene) acetohydrazide], in data set [1], the “Total GSH TC50” value stood at 217000 nM and the “Percent Change in Total GSH” value is −84.9%. In addition, the “ATP TC50” value in data set [2] amounted to 210000 nM. Moreover, in data set [3], the “% Control (Compound + CSA)” value turned out to be 92.1%, the “% Control (Compound)” value is 93.7% and the “% Difference (PgP interaction ranking)” value is reported as “NC”. In addition, the “Interaction with Permeability-glycoprotein” value in data set [3] (cells incubated with and without CSA, 50 μM) is “low interaction”. Moreover, in data set [4], the “Effect on 8-isoprostane” value is listed as “did not have any effect” and the “Membrane Lipid Peroxidation” value amounted to 0.
Take `C=C(C)[C@H]1Cc2c(ccc3c2O[C@@H]2COc4cc(OC)c(OC)cc4[C@@H]2C3=O)O1` [Rotenone, rotenone]: in data set [1], the “Total GSH TC50” value is 300 nM and the “Percent Change in Total GSH” value is on record as −100.0%. In data set [2], the “ATP TC50” value was found to be 50 nM. Also, in data set [3], the “% Control (Compound + CSA)” value worked out at 86.1%, the “% Control (Compound)” value was determined as 80.5% and the “% Difference (PgP interaction ranking)” value is reported as “NC”. Moreover, in data set [4], the “Membrane Lipid Peroxidation” value was determined as 0.
